According to PubChem BioAssay (NCI):
Several values for one entry are separate records, joined by “and”; a condition that tells them apart may be missing. Equal values may be shown once.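 These data come from cells grown in 96-well plates and exposed to compound for 48 hours at five concentrations. GI50: concentration for 50% inhibition of growth. TGI marks complete inhibition of growth.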

Tests used:
Test in all cases: NCI tumour cell line growth inhibition, 48 h
[1] = test system: HOP-92 NSCLC
[2] = test system: XF 498 CNS
[3] = test system: OVCAR-8 ovarian
[4] = test system: SNB-75 CNS
[5] = test system: NCI-H23 lung
[6] = test system: HCC-2998 colon
[7] = test system: SN12C renal
[8] = test system: SNB-78 CNS
[9] = test system: KM12 colon
[10] = test system: NCI-H460 lung
[11] = test system: SW-620 colon
[12] = test system: LXFL 529 NSCLC
[13] = test system: A549 NSCLC
[14] = test system: NCI-H226 lung
[15] = test system: UACC-62 melanoma
[16] = test system: CAKI-1 renal
[17] = test system: SR leukemia
[18] = test system: SNB-19 CNS
[19] = test system: U251 CNS
[20] = test system: OVCAR-5 ovarian
[21] = test system: ACHN renal
[22] = test system: MALME-3M melanoma
[23] = test system: SK-MEL-5 melanoma
[24] = test system: TK-10 renal
[25] = test system: EKVX NSCLC
[26] = test system: M19-MEL melanoma
[27] = test system: HOP-62 NSCLC
[28] = test system: K-562 leukemia
[29] = test system: COLO 205 colon
[30] = test system: A498 renal
[31] = test system: UO-31 renal
[32] = test system: DMS 273 small cell lung
[33] = test system: DLD-1 colon
[34] = test system: RXF 393 renal
[35] = test system: OVCAR-4 ovarian
[36] = test system: KM20L2 colon
[37] = test system: NCI-H522 lung
[38] = test system: 786-0 renal
[39] = test system: HL-60(TB) leukemia
[40] = test system: HCT-15 colon
[41] = test system: RPMI-8226 leukemia
[42] = test system: HCT-116 colon
[43] = test system: SF-295 CNS
[44] = test system: UACC-257 melanoma
[45] = test system: SK-OV-3 ovarian
[46] = test system: SF-268 CNS
[47] = test system: HOP-18 NSCLC
[48] = test system: LOX IMVI melanoma
[49] = test system: M14 melanoma
[50] = test system: SF-539 CNS
[51] = test system: IGROV1 ovarian
[52] = test system: HT29 colon
[53] = test system: DMS 114 small cell lung
[54] = test system: CCRF-CEM leukemia
[55] = test system: OVCAR-3 ovarian
[56] = test system: MOLT-4 leukemia
[57] = test system: SK-MEL-28 melanoma

## COc1ccc2c(=O)c(C)c(-c3ccccc3)oc2c1CN(C)C
[1]
  TGI: > 100 µM
[2]
  TGI: > 100 µM
[3]
  TGI: > 100 µM
[4]
  TGI: > 100 µM and 98.4 µM
[5]
  TGI: > 100 µM
[6]
  TGI: > 100 µM
[7]
  TGI: > 100 µM
[8]
  TGI: > 100 µM
[9]
  TGI: > 100 µM
[10]
  TGI: > 100 µM
[11]
  TGI: > 100 µM
[12]
  TGI: > 100 µM
[13]
  TGI: > 100 µM
[14]
  TGI: > 100 µM
[15]
  TGI: > 100 µM
[16]
  TGI: > 100 µM
[17]
  TGI: > 100 µM
[18]
  TGI: > 100 µM
[19]
  TGI: > 100 µM
[20]
  TGI: > 100 µM
[21]
  TGI: > 100 µM
[22]
  TGI: > 100 µM
[23]
  TGI: > 100 µM
[24]
  TGI: > 100 µM
[25]
  TGI: > 100 µM
[26]
  GI50: > 100 µM and 42.4 µM
  TGI: > 100 µM
[27]
  TGI: > 100 µM
[28]
  TGI: > 100 µM
[29]
  TGI: > 100 µM
[30]
  TGI: > 100 µM
[31]
  TGI: > 100 µM
[32]
  TGI: > 100 µM
[33]
  TGI: > 100 µM
[34]
  TGI: > 100 µM
[35]
  TGI: > 100 µM
[36]
  TGI: > 100 µM
[37]
  TGI: > 100 µM
[38]
  TGI: > 100 µM
[39]
  GI50: > 100 µM and 34.6 µM
  TGI: > 100 µM
[40]
  TGI: > 100 µM
[41]
  TGI: > 100 µM
[42]
  TGI: > 100 µM
[43]
  TGI: > 100 µM
[44]
  TGI: > 100 µM
[45]
  TGI: > 100 µM
[46]
  TGI: > 100 µM
[47]
  TGI: > 100 µM
[48]
  TGI: > 100 µM
[49]
  TGI: > 100 µM
[50]
  TGI: > 100 µM
[51]
  TGI: > 100 µM
[52]
  GI50: > 100 µM and 30.6 µM
  TGI: > 100 µM
[53]
  TGI: > 100 µM
[54]
  TGI: > 100 µM
[55]
  TGI: > 100 µM
[56]
  TGI: > 100 µM
[57]
  TGI: > 100 µM
